Test results taken from ChEMBL document CHEMBL1138394, “A novel butyrolactone derivative inhibited apoptosis and depressed integrin beta4 expression in vascular endothelial cells” (2007).
Active and inactive are the calls of the source. The rule behind the calls is not given here.

Experiments:
[1] = Inhibition of serum deprivation-induced vascular endothelial cell apoptosis assessed as apoptotic cell proportion at 40 ug/ml after 24 hrs by TUNEL assay; type: functional, Homo sapiens; parameters: scale not given: the % may be the effect or the level left
[2] = Inhibition of serum deprivation-induced ROS level in vascular endothelial cells at 30 ug/ml after 24 hrs relative to control; type: functional, Homo sapiens, Endothelial cell
Endothelial cell [3] = test: Inhibition of DNA fragmentation in vascular endothelial cells at 40 ug/ml after 24 hrs; type: functional, cell-based; conditions: Homo sapiens
[4] = Inhibition of FGF2 deprivation-induced vascular endothelial cell apoptosis assessed as apoptotic cell proportion at 40 ug/ml after 24 hrs by TUNEL assay; type: functional, Homo sapiens; parameters: scale not given: the % may be the effect or the level left
[5] = Inhibition of serum deprivation-induced integrin beta-4 expression in vascular endothelial cells at 40 ug/ml after 24 hrs relative to control; type: functional, Homo sapiens, Endothelial cell
Endothelial cell [6] = test: Prevention of FGF2 deprivation-induced reduction of vascular endothelial cell viability after 24 hrs by MTT assay; type: functional, cell-based; conditions: Homo sapiens
Endothelial cell [7] = test: Prevention of serum deprivation-induced reduction of vascular endothelial cell viability after 24 hrs by MTT assay; type: functional, cell-based; conditions: Homo sapiens
[8] = Inhibition of FGF2 deprivation-induced integrin beta-4 expression in vascular endothelial cells at 40 ug/ml after 24 hrs relative to control; type: functional, Homo sapiens, Endothelial cell
[9] = Inhibition of FGF2 deprivation-induced ROS level in vascular endothelial cells at 30 ug/ml after 24 hrs relative to control; type: functional, Homo sapiens, Endothelial cell
Endothelial cell [10] = test: Prevention of FGF2 deprivation-induced reduction of vascular endothelial cell viability after 48 hrs by MTT assay; type: functional, cell-based; conditions: Homo sapiens
Endothelial cell [11] = test: Prevention of serum deprivation-induced reduction of vascular endothelial cell viability after 48 hrs by MTT assay; type: functional, cell-based; conditions: Homo sapiens

Compound: O=C1OC(COc2ccccc2[N+](=O)[O-])CC1Cc1ccccc1 (stereo unspecified)
- Activity [1]: 9.89%
- Activity [2]: 7.95
- Activity (Endothelial cell [3]): Active
- Activity [4]: 9.89%
- Activity [5]: 33.8
- Activity (Endothelial cell [6]): Dose-dependent effect
- Activity (Endothelial cell [7]): Dose-dependent effect
- Activity [8]: 33.8
- Activity [9]: 7.95
- Activity (Endothelial cell [10]): Dose-dependent effect
- Activity (Endothelial cell [11]): Dose-dependent effect
